Like-named read-outs stand apart in the source and are kept apart here.
Assays:
[1] = target: T1, complex I (NADH:ubiquinone oxidoreductase), Pd-CI (Paracoccus denitrificans, UniProt A1B487+A1B495+A1B497); assay: NADH:DQ oxidoreductase assay, detergent-solubilized purified enzyme ([…] in proteoliposomes); assay type: biochemical
T1 construct: gene nuoD; intact purified complex I, His6-tag on C-terminus of Nqo5 (Pd-Nqo5^His6); with multisubunit complex (14 core Nqo subunits plus PdNUMM, PdNUYM, PdN7BM)
T1 sequence (A1B496 entry or part of it): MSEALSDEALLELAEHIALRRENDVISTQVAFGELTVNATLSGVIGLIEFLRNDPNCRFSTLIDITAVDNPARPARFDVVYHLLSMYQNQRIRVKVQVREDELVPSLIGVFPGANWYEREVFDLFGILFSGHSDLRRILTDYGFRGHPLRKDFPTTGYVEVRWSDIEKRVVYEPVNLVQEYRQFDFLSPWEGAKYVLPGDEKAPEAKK
T1 sequence (A1B495 whole entry): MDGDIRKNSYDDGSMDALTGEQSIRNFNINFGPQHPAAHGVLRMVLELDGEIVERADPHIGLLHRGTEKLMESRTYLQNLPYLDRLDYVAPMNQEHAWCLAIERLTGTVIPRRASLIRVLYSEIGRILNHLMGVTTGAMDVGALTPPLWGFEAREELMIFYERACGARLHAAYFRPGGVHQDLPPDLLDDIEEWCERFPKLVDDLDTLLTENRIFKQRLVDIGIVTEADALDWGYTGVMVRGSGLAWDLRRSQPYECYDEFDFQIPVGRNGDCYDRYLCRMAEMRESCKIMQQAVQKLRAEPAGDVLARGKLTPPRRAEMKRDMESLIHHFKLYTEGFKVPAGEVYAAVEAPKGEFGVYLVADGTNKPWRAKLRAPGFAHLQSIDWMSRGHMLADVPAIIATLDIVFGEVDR
T1 sequence (A1B487 whole entry): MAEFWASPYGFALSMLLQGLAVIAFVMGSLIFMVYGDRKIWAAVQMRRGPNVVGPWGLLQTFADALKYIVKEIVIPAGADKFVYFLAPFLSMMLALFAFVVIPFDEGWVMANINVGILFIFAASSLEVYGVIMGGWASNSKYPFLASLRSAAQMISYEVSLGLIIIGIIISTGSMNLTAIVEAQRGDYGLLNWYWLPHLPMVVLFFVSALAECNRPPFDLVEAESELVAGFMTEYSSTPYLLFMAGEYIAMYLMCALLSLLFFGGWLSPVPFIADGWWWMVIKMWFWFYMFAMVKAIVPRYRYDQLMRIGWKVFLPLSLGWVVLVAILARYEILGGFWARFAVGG
T1 sequence (A1B498 entry or part of it, further chain): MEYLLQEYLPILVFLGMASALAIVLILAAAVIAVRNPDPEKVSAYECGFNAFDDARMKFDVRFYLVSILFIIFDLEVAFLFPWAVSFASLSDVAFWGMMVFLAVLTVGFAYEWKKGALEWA
T1 sequence (A1B497 whole entry): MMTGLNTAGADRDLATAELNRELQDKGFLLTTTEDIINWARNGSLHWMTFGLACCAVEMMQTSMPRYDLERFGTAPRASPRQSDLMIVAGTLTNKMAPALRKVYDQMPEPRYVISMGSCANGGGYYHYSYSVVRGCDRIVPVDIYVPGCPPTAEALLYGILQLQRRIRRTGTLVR

[2] = target: T1, complex I (NADH:ubiquinone oxidoreductase), Pd-CI; assay: as above; assay type: biochemical; remark: listed apart in the source

Row | SMILES | IC50 [1] [nM] | IC50 [2] [nM]
1 | C/C=C(\C)[C@H](O)[C@H](C)/C=C(C)/C=C/C/C(C)=C/Cc1nc(OC)c(OC)c(O)c1C [piericidin A] | 72 ± 7 | –
2 | C=C(C)[C@H]1Cc2c(ccc3c2O[C@@H]2COc4cc(OC)c(OC)cc4[C@@H]2C3=O)O1 [rotenone] | – | 2230 ± 185

Reference: publication PMC8115037, “Paracoccus denitrificans: a genetically tractable model system for studying respiratory complex I” (Scientific Reports, 2021)
